# Values quoted from earlier work as cited in patent US8703719B1, “Method and composition for improved muscle performance” (Bio-Engineered Supplements and Nutrition, Inc., priority 2009, dated 2014).
# Conditions: oral; weight training individuals
smiles,measurement,value
"C[N+](C)(C)CC(=O)[O-] [trimethylglycine (betaine), Trimethylglycine]",increase in bench-throw power compared with placebo,16%
same,increase in isometric bench-press force compared with placebo,28%
